Data: US10092589B2, “Anti-tumor agent containing anti-tumor platinum complex, and anti-tumor effect enhancer” (Taiho Pharmaceutical Company Limited, priority 2014, dated 2018)
Marks after values point to notes of the source that are not given here.

Tests used:
[1] = Carboplatin tolerability in mice with no cancer (Reference Example 3); format: in vivo, BALB/cA Jcl-nu mice; conditions: tail vein, Day 1
Protocol: To BALB/cA Jcl-nu mice with no cancer (5 mice in each group), carboplatin (CBDCA) was administered at 50, 70, 100, 140, or 200 mg/kg/day through the tail vein on Day 1. In the groups treated with the doses of 140 mg/kg/day or more, strong body weight reductions of 20% or more and death cases were observed. The recommended dose of carboplatin for mice was thus 100 mg/kg/day.

[2] = test system: human lung cancer cell line (Lu-134); assay: Lu-134 xenograft, FTD·TPI combination drug and carboplatin (Example 2); format: in vivo; conditions: Day 29, tail vein Day 1 and Day 8
Protocol: (§1) As an index of the anti-tumor effect, the TVs on Days 5, 8, 11, 15, 19, 22, 26, and 29 were calculated in each group. In accordance with the following equation, the relative tumor volume (RTV) to that on Day 0 was calculated and compared with the RTV of the untreated group (control).
(§2) The tumor growth inhibition rate (IR) on Day 29 on the basis of RTV values was calculated in accordance with the following equation. IR(%)=[1−(mean RTV value of treated group)/(mean RTV value of control group)]×100
(§3) In a similar manner to that in Example 1, to BALB/cA Jcl-nu mice to which a human lung cancer cell line (Lu-134) had been transplanted, the FTD⋅TPI combination drug or carboplatin alone, or a combination of the two was administered, and enhancement of the anti-tumor effect was examined.
The FTD⋅TPI combination drug (a mixture of FTD and TPI at a molar ratio of 1:0.5) was prepared for administration at doses of 75 and 150 mg/kg/day in terms of FTD. Carboplatin (Paraplatin inj., Bristol-Myers) was prepared for administration at doses of 50 and 100 mg/kg/day. The FTD⋅TPI combination drug was orally administered on Days 1 to 14 consecutively, and carboplatin was administered through the tail vein on Day 1 and Day 8. In the combination administration groups, the doses and administration schedules of the FTD⋅TPI combination drug and carboplatin were the same as those of the corresponding monotherapy groups. The TV and body weight of each group were measured on Days 4, 8, 11, 15, 19, 22, 26, and 29, and the anti-tumor effect and side effects were evaluated.

[3] = test system: human lung cancer cell line (Lu-134); assay: Lu-134 xenograft, FTD·TPI combination drug and cisplatin (Example 1); format: in vivo; conditions: Day 29, tail vein Day 1 and Day 8
Protocol: A human lung cancer cell line (Lu-134) was transplanted to the right chest of 5 to 6-week-old BALB/cA Jcl-nu mice. After the tumor transplantation, the long diameter (mm) and the short diameter (mm) of the tumor were measured, and the tumor volume (TV) was calculated.
The FTD⋅TPI combination drug (a mixture of FTD and TPI at a molar ratio of 1:0.5) was prepared for administration at doses of 75 and 150 mg/kg/day in terms of FTD. Cisplatin (Randa inj., Nippon Kayaku Co., Ltd) was prepared for administration at doses of 3.5 and 7 mg/kg/day. The FTD⋅TPI combination drug was orally administered on Days 1 to 14 consecutively, and cisplatin was administered through the tail vein on Day 1 and Day 8. In the combination administration groups, the doses and administration schedules of the FTD⋅TPI combination drug and cisplatin were the same as those of the corresponding monotherapy groups.
as §1
TV(mm^3)=(long diameter×short diameter^2)/2 RTV=(TV on Day 29)/(TV on Day 0)
as §2
To evaluate body weight reduction as an index of side effects, body weights were measured in each group on each measurement day.

[4] = Cisplatin tolerability (body weight) in KM20C-transplanted mice (Reference Example 2); format: in vivo, BALB/cA Jcl-nu mice
Protocol: To BALB/cA Jcl-nu mice (8 mice in each group) to which a human colon cancer cell line KM20C had been transplanted, cisplatin was administered through the tail vein on Day 1 and Day 8. At a dose of 7 mg/kg/day, body weight reduction was 20% or less, and this dose was feasible. Accordingly, the recommended dose of cisplatin (CDDP) for mice was 7 mg/kg/day.

[5] = Oxaliplatin tolerability in mice with no cancer (Reference Example 4); format: in vivo, BALB/cA Jcl-nu mice; conditions: tail vein, Day 1 and Day 8
Protocol: To BALB/cA Jcl-nu mice with no cancer (4 mice in each group), oxaliplatin (l-OHP) was administered at 10, 12, 15, or 22.5 mg/kg/day through the tail vein on Day 1 and Day 8. In the groups treated with the doses of 15 mg/kg/day or more, strong body weight reductions of 20% or more were observed. The recommended dose of oxaliplatin for mice was thus 12 mg/kg/day.

[6] = test system: human colon cancer cell strain (SW48); assay: SW48 xenograft, FTD·TPI combination drug and oxaliplatin (Example 3-2); format: in vivo; conditions: tail vein Day 1 and Day 8; for IR (tumor growth inhibition rate) / RTV (mean ± SD): Day 29
Protocol: In a similar manner to that in Example 1, to BALB/cA Jcl-nu mice to which a human colon cancer cell strain (SW48) had been transplanted, the FTD⋅TPI combination drug or oxaliplatin alone, or a combination of the two was administered, and enhancement of the anti-tumor effect was examined.
(§4) The FTD⋅TPI combination drug (a mixture of FTD and TPI at a molar ratio of 1:0.5) was prepared for administration at a dose of 150 mg/kg/day in terms of FTD. Oxaliplatin (Eloxatin, Sanofi-Aventis) was prepared for administration at doses of 7 and 12 mg/kg/day. The FTD⋅TPI combination drug was orally administered on Days 1 to 14 consecutively, and oxaliplatin was administered through the tail vein on Day 1 and Day 8. In the combination administration groups, the doses and administration schedules of the FTD⋅TPI combination drug and oxaliplatin were the same as those of the corresponding monotherapy groups. The TV and body weight of each group were measured on Days 3, 7, 11, 15, 18, 22, 25, and 29, and the anti-tumor effect and side effects were evaluated.
The number of days that elapsed until the tumor volume reached 5 times that on Day 0 (RTV5) was determined, and the growth delay effect was evaluated (Cancer Chemother Pharmacol 57: 709-718, 2006; Int J Radiat Oncol Biol Phys 86 (3): 469-76, 2013).

[7] = test system: human colon cancer cell strain (KM20C); assay: KM20C xenograft, FTD·TPI combination drug and oxaliplatin (Example 3-1); format: in vivo; conditions: Day 15, tail vein Day 1 and Day 8
Protocol: as §1
IR(%)=[1−(mean RTV value of treated group)/(mean RTV value of control group)]×100
In a similar manner to that in Example 1, to BALB/cA Jcl-nu mice to which a human colon cancer cell strain (KM20C) had been transplanted, the FTD⋅TPI combination drug or oxaliplatin alone, or a combination of the two was administered, and enhancement of the anti-tumor effect was examined.
The FTD⋅TPI combination drug (a mixture of FTD and TPI at a molar ratio of 1:0.5) was prepared for administration at doses of 75 and 150 mg/kg/day in terms of FTD. Oxaliplatin (Eloxatin, Sanofi-Aventis) was prepared for administration at doses of 6 and 12 mg/kg/day. The FTD⋅TPI combination drug was orally administered on Days 1 to 14 consecutively, and oxaliplatin was administered through the tail vein on Day 1 and Day 8. In the combination administration groups, the doses and administration schedules of the FTD⋅TPI combination drug and oxaliplatin were the same as those of the corresponding monotherapy groups. The TV and body weight of each group were measured on Days 4, 7, 10, and 15, and the anti-tumor effect and side effects were evaluated.

[8] = test system: human gastric cancer cell line (MKN74/5-FU), 5-FU resistant; assay: MKN74/5-FU xenograft, FTD·TPI combination drug and oxaliplatin (Example 3-4); format: in vivo; conditions: tail vein Day 1 and Day 8; for IR (tumor growth inhibition rate) / RTV (mean ± SD): Day 29
Protocol: as §3, with “gastric” for “lung”, “(MKN74/5-FU) that is a 5-FU resistant cell line” for “(Lu-134)”, “oxaliplatin” for “carboplatin”
as §4
(§5) The number of days that elapsed until the tumor volume reached 5 times that on Day 0 (RTV5) was determined, and the growth delay effect was evaluated.

[9] = test system: human gastric cancer cell line (MKN74); assay: MKN74 xenograft, FTD·TPI combination drug and oxaliplatin (Example 3-3); format: in vivo; conditions: tail vein Day 1 and Day 8; for IR (tumor growth inhibition rate) / RTV (mean ± SD): Day 29
Protocol: In a similar manner to that in Example 1, to BALB/cA Jcl-nu mice to which a human gastric cancer cell line (MKN74) was transplanted, the FTD⋅TPI combination drug or oxaliplatin alone, or a combination of the two was administered, and enhancement of the anti-tumor effect was examined.
as §4, §5

N.N.O=C([O-])C1(C(=O)[O-])CCC1.[Pt+2] [Carboplatin (CBDCA), cis-diammine (1,1-cyclobutanedicarboxylato)-platinum (II)]
body weight reductions ([1]; doses of 140 mg/kg/day or more): ≥ 20% | death ([1]; doses of 140 mg/kg/day or more): death cases | recommended dose for mice [1]: 100 mg/kg/day | IR (tumor growth inhibition rate) ([2]; 50 mg/kg/day): 25.3% | RTV (mean ± SD) ([2]; 50 mg/kg/day): 26.86 ± 2.44 | IR (tumor growth inhibition rate) ([2]; 100 mg/kg/day): 57.2% | RTV (mean ± SD) ([2]; 100 mg/kg/day): 15.40 ± 4.38

N.N.[Cl][Pt][Cl] [Cisplatin (CDDP), (SP-4-2)-diamminedichloroplatinum]
IR (tumor growth inhibition rate) ([3]; 3.5 mg/kg/day): 21.0% | RTV (mean ± SD) ([3]; 3.5 mg/kg/day): 29.12 ± 2.79 | IR (tumor growth inhibition rate) ([3]; 7.0 mg/kg/day): 49.6% | RTV (mean ± SD) ([3]; 7.0 mg/kg/day): 18.56 ± 4.64 | body weight reduction ([4]; 7 mg/kg/day, tail vein Day 1 and Day 8): ≤ 20% | recommended dose for mice ([4]; tail vein, Day 1 and Day 8): 7 mg/kg/day

O=C1[O][Pt]2([NH][C@@H]3CCCC[C@H]3[NH]2)[O]C1=O [Oxaliplatin (l-OHP), [(1R,2R)-cyclohexane-1,2-diamine](ethanedioato-O,O′)platinum(II)]
body weight reductions ([5]; doses of 15 mg/kg/day or more): ≥ 20% | recommended dose for mice [5]: 12 mg/kg/day | RTV5 (the period, RTV reaches 5) ([6]; 7 mg/kg/day): 8.9 ± 0.4 days | RTV5 (the period, RTV reaches 5) ([6]; 12 mg/kg/day): 10.0 ± 0.8^$ days | IR (tumor growth inhibition rate) ([6]; 7 mg/kg/day): 22.1% | RTV (mean ± SD) ([6]; 7 mg/kg/day): 47.63 ± 4.33 | IR (tumor growth inhibition rate) ([6]; 12 mg/kg/day): 36.7% | RTV (mean ± SD) ([6]; 12 mg/kg/day): 38.72 ± 3.69*^,# | IR (tumor growth inhibition rate) ([7]; 6 mg/kg/day): 36.4% | RTV (mean ± SD) ([7]; 6 mg/kg/day): 6.99 ± 0.32 | IR (tumor growth inhibition rate) ([7]; 12 mg/kg/day): 55.0% | RTV (mean ± SD) ([7]; 12 mg/kg/day): 4.94 ± 0.53 | RTV5 (the period, RTV reaches 5) ([8]; 7 mg/kg/day): 18.6 ± 1.4^$ days | RTV5 (the period, RTV reaches 5) ([8]; 12 mg/kg/day): 20.1 ± 1.3^$ days | IR (tumor growth inhibition rate) ([8]; 7 mg/kg/day): 33.7% | RTV (mean ± SD) ([8]; 7 mg/kg/day): 11.23 ± 1.60 | IR (tumor growth inhibition rate) ([8]; 12 mg/kg/day): 40.5% | RTV (mean ± SD) ([8]; 12 mg/kg/day): 10.08 ± 1.77 | RTV5 (the period, RTV reaches 5) ([9]; 7 mg/kg/day): 15.8 ± 0.6^$ days | RTV5 (the period, RTV reaches 5) ([9]; 12 mg/kg/day): 18.5 ± 0.8^$ days | IR (tumor growth inhibition rate) ([9]; 7 mg/kg/day): 20.7% | RTV (mean ± SD) ([9]; 7 mg/kg/day): 12.67 ± 0.74 | IR (tumor growth inhibition rate) ([9]; 12 mg/kg/day): 35.8% | RTV (mean ± SD) ([9]; 12 mg/kg/day): 10.25 ± 0.87
